The text below walks through data of patent US20260242415A1 (priority 2022, published 2026).

Positions of bridges follow the written chain, without caps; N, C: chain ends. Non-standard residues stand in square brackets, D forms with d. Chains are numbered I, II in the order given. AEEA = NCCOCCOCC(=O)O

Assay [1] deals with spike protein of the SARS-CoV-2 virion. It counts as binding.
For assay [2], the target named is full length SARS-CoV-2 Spike (Severe acute respiratory syndrome coronavirus 2, UniProt P0DTC2). It counts as binding. The note with it: 10 µM.
Assay [3] has as its system VSV pseudotyped with spike protein from SARS-CoV-2.
Assay [4] has as its system VSV pseudotyped with spike protein from SARS-CoV-1.
The subject of assay [5] is VSV pseudotyped with spike protein from WIV-16.

In the case of CFFWYENYYTAITVT [SARS1spikeL3], the “enrichment in final round (% of total sequences)” value in assay [1] was 2.90%. On to IILYRTYFQPFRWEF [SARS1spikeL2], for which the “enrichment in final round (% of total sequences)” value in assay [1] worked out at 5.58%. For “I: {CH2CO}-YRRPREQIIIGSLWVFCG[AEEA][AEEA][AEEA][AEEA]KG-NH2 / II: {CH2CO}-YRRPREQIIIGSLWVFCG[AEEA][AEEA][AEEA][AEEA] (amide I:23-II:C; thioether I:N-I:17, II:N-II:17) [Dimer 1]”, in the assay on SARS-CoV-2 pseudoviruses, the IC50 (usually the concentration needed to halve the response being measured) came out at 30 nM. With SIENYLKKLGYVLLW [SARS2D4], in assay [1], the “enrichment in final round (% of total sequences)” value was determined as 5.53%. In addition, the “ΔTm, melting point change” value in assay [2] is −0.5 °C. Regarding TSQICQELDALGDWI [SARS1spikeD2], the “enrichment in final round (% of total sequences)” value in assay [1] stood at 7.71%. Regarding “I: {CH2CO}-YRRPREQIIIGSLWVFCG[AEEA][AEEA]KG-NH2 / II: {CH2CO}-YRRPREQIIIGSLWVFCG[AEEA][AEEA] (amide I:21-II:C; thioether I:N-I:17, II:N-II:17) [Dimer 2]”, it took 50 nM to reach half-maximal inhibition in the assay on SARS-CoV-2 pseudoviruses (IC50). Still for that read-out and setting: for “I: {CH2CO}-YRRPREQIIIGSLWVFCG[AEEA][AEEA][AEEA][AEEA][AEEA][AEEA]KG-NH2 / II: {CH2CO}-YRRPREQIIIGSLWVFCG[AEEA][AEEA][AEEA][AEEA][AEEA][AEEA] (amide I:25-II:C; thioether I:N-I:17, II:N-II:17) [Dimer 3]” the value was 90 nM.

Take `CC[C@H](C)[C@@H]1NC(=O)[C@H](C(C)C)NC(=O)[C@H](CC(C)C)NC(=O)[C@H](CCCCN)NC(=O)[C@H](CCCNC(=N)N)NC(=O)[C@@H]2CCCN2C(=O)[C@H](C(C)C)NC(=O)[C@H](CCCNC(=N)N)NC(=O)[C@H](Cc2ccc(O)cc2)NC(=O)CSC[C@@H](C(=O)NCC(N)=O)NC(=O)[C@H](Cc2ccccc2)NC(=O)[C@H](CC(N)=O)NC(=O)[C@H](Cc2c[nH]c3ccccc23)NC(=O)[C@H](C(C)C)NC(=O)[C@H](CO)NC(=O)CNC(=O)[C@H]([C@@H](C)CC)NC1=O` [Compound S1b3inL4]: in assay [1], the “enrichment in final round (% of total sequences)” value stood at 1.50%. In assay [2], the “ΔTm, melting point change” value was found to be 0 °C. In addition, the IC50 with whole SARS-CoV-2 virus was 11400 nM.

For `CC[C@H](C)[C@@H]1NC(=O)[C@H](CCC(N)=O)NC(=O)[C@H](CCC(=O)O)NC(=O)[C@H](CCCNC(=N)N)NC(=O)[C@@H]2CCCN2C(=O)[C@H](CCCNC(=N)N)NC(=O)[C@H](CCCNC(=N)N)NC(=O)[C@H](Cc2ccc(O)cc2)NC(=O)CSC[C@@H](C(=O)NCC(N)=O)NC(=O)[C@H](Cc2ccccc2)NC(=O)[C@H](C(C)C)NC(=O)[C@H](Cc2c[nH]c3ccccc23)NC(=O)[C@H](CC(C)C)NC(=O)[C@H](CO)NC(=O)CNC(=O)[C@H]([C@@H](C)CC)NC(=O)[C@H]([C@@H](C)CC)NC1=O` [Compound S1b3inL1], the IC50 came to 810 nM in the assay with SARS2-S pseudotyped VSV; 5200 nM in the assay on whole SARS-CoV-2 virus; 1700 nM in assay [3]; 2200 nM in assay [4]; 7000 nM in assay [5]; 1500 nM in the assay with SARS-CoV-2 pseudoviruses. For LIWYQSYYQTEVVWF [SARS1spikeL1], the “enrichment in final round (% of total sequences)” value in assay [1] is recorded as 8.32%.

The compound “I: {CH2CO}-YRRPREQIIIGSLWVFCG[AEEA][AEEA][AEEA][AEEA][AEEA][AEEA][AEEA][AEEA]KG-NH2 / II: {CH2CO}-YRRPREQIIIGSLWVFCG[AEEA][AEEA][AEEA][AEEA][AEEA][AEEA][AEEA][AEEA] (amide I:27-II:C; thioether I:N-I:17, II:N-II:17) [Dimer 4]” gave an IC50 in the assay on SARS-CoV-2 pseudoviruses of 10 nM. For the compound `CC[C@H](C)[C@@H]1NC(=O)[C@H](Cc2ccc(O)cc2)NC(=O)CSC[C@@H](C(=O)NCC(N)=O)NC(=O)[C@H](C(C)C)NC(=O)[C@H](Cc2ccc(O)cc2)NC(=O)[C@H](CCC(N)=O)NC(=O)[C@H](C(C)C)NC(=O)[C@H](Cc2c[nH]cn2)NC(=O)[C@H]([C@@H](C)O)NC(=O)[C@H](CO)NC(=O)[C@H](Cc2ccc(O)cc2)NC(=O)[C@H](CC(C)C)NC(=O)[C@H](CO)NC(=O)[C@H](CC(=O)O)NC(=O)[C@H](Cc2c[nH]cn2)NC(=O)[C@H](Cc2c[nH]c3ccccc23)NC(=O)[C@H](C(C)C)NC1=O` [SARS2L1], the figures for the IC50 with SARS2-S pseudotyped VSV and in the assay on whole SARS-CoV-2 virus were 410 nM and above 100000 nM, respectively. VIWHPDRWTSVVLQI [SARS2L2]: in assay [1], the “enrichment in final round (% of total sequences)” value is listed as 17.02%. In addition, the “ΔTm, melting point change” value in assay [2] turned out to be 2 °C. With LVFHDNVYTVTVVHV [SARS2R3L1], the “enrichment in final round (% of total sequences)” value in assay [1] worked out at 0.71%. Besides, in assay [2], the “ΔTm, melting point change” value was 1 °C. Taken in the same sequence, the figures for NARILQRWFPELAHL [SARS2D1] were 11.88% and 0 °C. With IVLHDGLRSATVLWI [SARS2R3L2], the “enrichment in final round (% of total sequences)” value in assay [1] was found to be 0.77%. Further, the “ΔTm, melting point change” value in assay [2] turned out to be 1.5 °C. With SVVFSADGRHYYWDS [SARS2L3], the “enrichment in final round (% of total sequences)” value in assay [1] was 1.25%. Further, in assay [2], the “ΔTm, melting point change” value worked out at 0 °C.
